Data reported in PMC13626384 (Journal of medicinal chemistry, 2025).
Entries after “also recorded” stand apart in the source; their conditions may differ. Read-outs that look alike come from different tables or passages of the source.

Key:
SF188 cell line = assay: Cytotoxicity against SF188 cells; format: cell-based, human
H460 cell line = assay: Cytotoxicity against H460 cells; format: cell-based
Plasma stability = format: in vitro ADME; settings: for remaining at 2 h / remaining at 5 h: mouse, plasma, Plasma Stability % remaining; for Plasma Stability % remaining: mouse plasma
in vitro = settings: mouse liver microsomes
[1] = Liver microsomal stability; settings: mouse liver microsomes
[2] = Caco-2 cell permeability and efflux; format: in vitro ADME, human; settings: human
D283-med cell line = assay: Cytotoxicity against D283-med cells; format: cell-based, human; settings: read-out: D283-med IC50
Caco-2 cells = assay: Caco-2 cell permeability and efflux; format: in vitro ADME, human; settings: for Efflux Ratio: Caco-2; for % Recovery (A-B): Caco-2, A-B direction; for % Recovery (B-A): Caco-2, B-A direction; for Pe (A-B): Caco-2, apical to basolateral; for Pe (B-A): Caco-2, basolateral to apical
[3] = biological target: human immunoproteasome (i20S) β5 (Homo sapiens, UniProt P20618+P28062); assay: Proteasome subunit inhibition, i20S β5; format: biochemical; settings: read-out: i20S β5 IC50 ± SD; read 60 to 90 minutes after start
[4] = biological target: human immunoproteasome (i20S) β2 (Homo sapiens, UniProt P40306+P49720); assay: Proteasome subunit inhibition, i20S β2; format: biochemical
[5] = biological target: human immunoproteasome (i20S) β1 (Homo sapiens, UniProt P28065+P40306); assay: Proteasome subunit inhibition, i20S β1; format: biochemical
[6] = In vivo pharmacokinetics, plasma and brain; set-up: species or system Male C57BL/6 mice; settings: mice
mice = assay: Toxicity observation in the PK study; format: in vivo; settings: 1 mg/kg i.v., 1 mg/kg
[7] = PAMPA-BBB permeability assay; settings: PAMPA-BBB
[8] = test system: human foreskin fibroblasts (HFF-1) cell line; assay: Cytotoxicity against HFF-1 cells; format: cell-based; settings: read-out: HFF-1 IC50; non-cancerous fibroblasts
[9] = biological target: human constitutive proteasome (c20S) β1 (Homo sapiens, UniProt P28072+Q99436); assay: Proteasome subunit inhibition, c20S β1; format: biochemical
[10] = Homo sapiens, SF-188, read-out: SF188 IC50, glioblastoma cell line
[11] = read-out: SF188 IC50, glioblastoma cell line
[12] = read-out: H460 IC50, non-small cell lung cancer cell line
[13] = read-out: i20S β2 IC50 ± SD, read 60 to 90 minutes after start
[14] = read-out: i20S β1 IC50 ± SD, read 60 to 90 minutes after start
[15] = 10 mg/kg i.v., with and without tariquidar
[16] = 10 mg/kg i.v., compound by itself, 30 minutes
[17] = 10 mg/kg i.v., pretreated with tariquidar, 0.5 h

| Compound | IC50 (SF188 cell line; [11]) [nM] | IC50 (H460 cell line; [12]) [nM] | remaining at 2 h (Plasma stability; after 2 hr) [%] | half-life (in vitro) [min] | Microsomal Stability Clearance Category [1] | IC50 (D283-med cell line; medulloblastoma cell line) [nM] | Plasma Stability % remaining (Plasma stability; after 2 hr) | Efflux Ratio (Caco-2 cells) | % Recovery (A-B) (Caco-2 cells) [%] | % Recovery (B-A) (Caco-2 cells) [%] | Pe (A-B) (Caco-2 cells) | Pe (B-A) (Caco-2 cells) | IC50 [3] [nM] | IC50 [4, 13] [nM] | IC50 [5, 14] [nM] | Microsomal Stability mCLint [1] [µL/min/mg] | % Recovery [7] [%] | Mean Permeability [7] | also measured |
| --- | --- | --- | --- | --- | --- | --- | --- | --- | --- | --- | --- | --- | --- | --- | --- | --- | --- | --- | --- |
| CC(C)C[C@H](NC(=O)C(CSc1c(F)c(F)c(F)c(F)c1F)NC(=O)[C@@H](NC(=O)CCc1ccccc1)C(C)C)C(=O)[C@@]1(C)CO1 (stereo in doubt) [Compound 2, (S)-3-Methyl-N-((S)-1-(((S)-4-methyl-1-((R)-2-methyloxiran-2-yl)-1-oxopentan-2-yl)amino)-1-oxo-3-((perfluorophenyl)thio)propan-2-yl)-2-(3-phenylpropanamido)butanamide] | 132 ± 22 | 632 ± 167 | > 99 | < 5 | High |  |  |  |  |  |  |  |  |  |  |  |  |  | IC50 (SF188 cell line; [10]): < 200 nM; remaining at 5 h (Plasma stability; after 5 hr): > 75% |
| CC(C)C[C@H](NC(=O)C(CSc1c(F)c(F)c(F)c(F)c1F)NC(=O)[C@@H](NC(=O)c1cc(Cl)ccc1Cl)C(C)C)C(=O)[C@@]1(C)CO1 (stereo in doubt) [Compound 4, 2,5-Dichloro-N-((S)-3-methyl-1-(((S)-1-(((S)-4-methyl-1-((R)-2-methyloxiran-2-yl)-1-oxopentan-2-yl)amino)-1-oxo-3-((perfluorophenyl)thio)propan-2-yl)amino)-1-oxobutan-2-yl)benzamide] | 192 ± 70 |  | > 99 | < 5 | High |  |  |  |  |  |  |  |  |  |  |  |  |  | IC50 (SF188 cell line; [10]): < 200 nM; remaining at 5 h (Plasma stability; after 5 hr): > 75%; Papp B→A ([2]; Caco-2): 1.3 ×10⁻⁶ cm/s; recovery ([2]; Caco-2, % Recovery (A-B), Caco-2, A-B direction): 27%; recovery ([2]; Caco-2, % Recovery (B-A), Caco-2, B-A direction): 42% |
| CC(C)C[C@H](NC(=O)[C@@H]1Cc2c(F)c(F)c(c(F)c2F)Sc2cccc(c2)CC(=O)N[C@@H](C(C)C)C(=O)N1)C(=O)[C@@]1(C)CO1 [Compound 10, (5S,8S)-3^2,3^3,3^5,3^6-Tetrafluoro-8-isopropyl-N-((S)-4-methyl-1-((R)-2-methyloxiran-2-yl)-1-oxopentan-2-yl)-7,10-dioxo-2-thia-6,9-diaza-1(1,3),3(1,4)-dibenzenacycloundecaphane-5-carboxamide] | 123 ± 8 | 2590 |  |  | High | 17 ± 7 | 98 after 2 hr % | 1.4 | 83 | 75 | 25.1 10^−6 cm/sec | 34.4 10^−6 cm/sec | 532 ± 56.9 | 464 ± 50.1 | 163 ± 14.9 | 202 | 49 | 3.48 10^−6 cm/sec | Plasma Stability % remaining (Plasma stability; after 5 hr): more than 75%; Mean B/P ratio ([6]; 1 mg/kg i.v., 1.0 h): 0.78; Mean Brain Con ([6]; 1 mg/kg i.v., 1.0 h): 12.0 ng/g; Mean Plasma Conc. ([6]; 1 mg/kg i.v., 1.0 h): 16.8 ng/mL; Mean Plasma Conc. ([6]; 1 mg/kg i.v., 4.0 h): 5.4 ng/mL; Mean Brain Con ([6]; 1 mg/kg i.v., 4.0 h, LLOQ 2.00 ng/mL, 1 mg/kg): below the limit of quantification and BLQ; Plasma Cmax ([6]; 1 mg/kg i.v., earliest time point): 423 ng/mL; Signs of toxicity (mice): no signs of toxicity were observed; also recorded: lack of toxicity; Pe (effective permeability) [7]: around 4 10^−6 cm s^−1 |
| CC(C)C[C@H](NC(=O)[C@@H]1Cc2c(F)c(F)c(c(F)c2F)S(=O)(=O)c2cccc(c2)CC(=O)N[C@@H](C(C)C)C(=O)N1)C(=O)[C@@]1(C)CO1 [Compound 11, (5S,8S)-3^2,3^3,3^5,3^6-Tetrafluoro-8-isopropyl-N-((S)-4-methyl-1-((R)-2-methyloxiran-2-yl)-1-oxopentan-2-yl)-7,10-dioxo-2-thia-6,9-diaza-1(1,3),3(1,4)-dibenzenacycloundecaphane-5-carboxamide 2,2-dioxide] | 9.8 ± 1.2 | 79 ± 20 |  |  | Medium | 6 ± 2 | 88% |  | 91 | 97 | 7.2 10^−6 cm/sec | 45.4 10^−6 cm/sec | 830 ± 260 | 829 ± 187 | 379 ± 47.7 | 43 | 64 | 2.15 10^−6 cm/sec | IC50 [8]: 85 ± 7 nM; Plasma half-life [6, 15]: 1.2 to 1.4 h; Brain tissue concentration ([6]; 10 mg/kg i.v., with and without tariquidar, 30 minutes and 2 hours): no quantifiable concentrations were detected; Microsomal Stability t1/2 [1]: 32 min |
| CC(C)C[C@H](NC(=O)[C@@H]1Cc2c(F)c(F)c(c(F)c2F)Sc2cccc(c2)CC(=O)NC(C)(C)C(=O)N1)C(=O)[C@@]1(C)CO1 [Compound 31, (S)-3^2,3^3,3^5,3^6-Tetrafluoro-8,8-dimethyl-N-((S)-4-methyl-1-((R)-2-methyloxiran-2-yl)-1-oxopentan-2-yl)-7,10-dioxo-2-thia-6,9-diaza-1(1,3),3(1,4)-dibenzenacycloundecaphane-5-carboxamide] | 24 ± 9 | 175 ± 16 |  |  | High | 57 ± 14 | 81 after 2 hr % | 17.6 | 94 | 73 | 3.6 10^−6 cm/sec | 63.0 10^−6 cm/sec | 763 ± 199 | 1060 ± 121 | 207 ± 14.3 | 182 | 64 | 3.70 10^−6 cm/sec | IC50 [8]: 122 ± 14 nM; Microsomal Stability t1/2 [1]: 8 min |
| C[C@@]12OC(=O)[C@]1([C@@H](O)[C@@H]1C=CCCC1)NC(=O)[C@@H]2CCCl [Marizomib, reference compound] |  |  | 20 | < 5 | High |  |  |  |  |  |  |  |  |  |  |  |  |  | IC50 (D283-med cell line; Homo sapiens, D283 Med): 70 ± 3 nM; IC50 (SF188 cell line; Homo sapiens, SF-188, read-out: SF188 IC50): 22 ± 4 nM; IC50 (H460 cell line; Homo sapiens, NCI-H460, read-out: H460 IC50): 73 ± 6 nM; IC50 [9]: 336 ± 27.2 nM; IC50 [4]: 207 ± 22.3 nM; IC50 [5]: 40.5 ± 1.7 nM; recovery ([7]; PAMPA, % Recovery): 2%; Papp ([7]; PAMPA, Mean Permeability): 0.13 ×10⁻⁶ cm/s |
| S)-N-((S)-4-Methyl-1-((R)-2-methyloxiran-2-yl)-1-oxopentan-2-yl)-8,11-dioxo-2-oxa-9,12-diaza-1(1,4)-benzenacyclotetradecaphane-13-carboxamide [Compound 35] | 806 ± 388 | 853 ± 90 |  |  | Low | 332 ± 12 | 64 after 2 hr % | 2.5 | 98 | 93 | 18.6 10^−6 cm/sec | 46.5 10^−6 cm/sec | 1900 ± 587 | 1750 ± 240 | 78.2 ± 5.3 | 10 | 100 | 6.81 10^−6 cm/sec | Plasma Stability % remaining (Plasma stability; after 5 hr): more than 75%; Mean B/P ratio ([6]; 10 mg/kg i.v., alone, 1.0 h): 0.08; Mean Brain Con ([6]; 10 mg/kg i.v., alone, 1.0 h): 26.3 ng/g; Mean Plasma Conc. ([6]; 10 mg/kg i.v., alone, 1.0 h): 330 ng/mL; Mean Plasma Conc. ([6]; 10 mg/kg i.v., alone, 2.0 h): 5.3 ng/mL; Mean Brain Con ([6]; 10 mg/kg i.v., alone, 2.0 h, LLOQ 2.00 ng/mL, 10 mg/kg): below the quantification limit and BLQ; Brain concentration [6, 16]: 26 ng/mL; Brain-to-plasma ratio [6, 16]: 0.08; Mean Brain Con ([6]; 10 mg/kg i.v., pretreated with tariquidar (13 mg/kg, i.p.), 0.5 h): 137.0 ng/g; Mean B/P ratio [6, 17]: 0.80; Mean Plasma Conc. [6, 17]: 165.7 ng/mL; Mean Plasma Conc. ([6]; 10 mg/kg i.v., pretreated with tariquidar, 2.0 h): 5.0 ng/mL; Mean Brain Con ([6]; 10 mg/kg i.v., pretreated with tariquidar, 2.0 h, LLOQ 2.00 ng/mL): below the quantification limit and BLQ; Brain concentration ([6]; 10 mg/kg i.v., tariquidar group, 30 minutes): 137 ng/mL; Plasma Cmax (average) [6, 15]: 2453 ng/mL; Plasma half-life [6, 15]: ~ 0.25 hours; Pe (effective permeability) [7]: 6.8 10^−6 cm s^−1 |
